Data from patent publication US7771713B2, “Chemical composition that attract arthropods” (priority 1999, dated 2010).
Values joined by “and” are separate entries in the source; they are usually repeats but may differ in a detail not shown here. Equal entries are not always repeated.

Experiments:
Aedes albopictus = experiment: Olfactometer attraction test of compounds and compositions; type: in vivo
Excerpt: The olfactometer was cleaned after each battery of tests.

Anopheles albimanus = experiment: as above; type: in vivo;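 also: olfactometer with a treatment port and a matching control port using identical delivery device and conditions, both opened together, three tests per battery, each run in its own cage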
Aedes aegypti [1] = experiment: Formulation and verification of the best blend: one treatment vs another treatment in the olfactometer; details: 200 μg L-lactic acid (1w) vs. 200 μg L-lactic acid (1w) + Acetone (3B)
Description: (§1) The tests were conducted in an olfactometer (55 ft^3/min airflow, 80° F., 60% R.H.) as described by Posey, J. Med. Entomol., 35, 330-334 (1998); and LA is lactic acid. Mosquitoes were allowed to settle at least one hour prior to testing. The olfactometer was cleaned after each battery of tests. Each battery consisted of three tests, conducted at 08:30, 11:00 and 13:00 hours local time. Each of the three tests was conducted in a separate cage. The control consisted of identical sample delivery devices and conditions compared to that of the treatment side. Both the treatment and control ports were opened and closed simultaneously when inserting a new treatment/control.

Aedes aegypti [2] = experiment: Olfactometer attraction test, treatment port vs control port, approximately 75 female mosquitoes; type: in vivo; details: for LA Avg response: average of n = 51 trials, 200 μL of 1 μg/μL methanolic solution; for Response with Ace (%): base compound together with acetone; for Δ [(Resp with Ace) − Resp] (%): difference between response with acetone and response alone; for Acetone Avg response: average of n = 4 trials, 500 μL from a 60 mm diameter glass petri dish; for Δ [(Resp with LA) − Resp] (%): difference between response with L-lactic acid and response alone; for Response with L-LA (%): compound 500 μL together with L-lactic acid
Description: as §1

[3] = base compound alone (mode of action similar to lactic acid)
[4] = compound alone, high dose of 500 μL

NCCCCN [1,4-Diaminobutane]
% caught (Aedes albopictus; single treatment, 1B (1 black cap)): 6.8%

C[C@H](O)C(=O)O [L-lactic acid]
% caught (Anopheles albimanus; single substance, 400 μg dish): 1.3%
% caught (Aedes albopictus; single substance, 200 μg, listed as LA): 11.7% and 8.3%
% mosquitoes trapped, treatment vs treatment (Aedes aegypti [1]): 8%
LA Avg response (Aedes aegypti [2]): 26%
LA Avg response (Aedes aegypti [2]; listed as LA): LA Avg: 1303/51 = 26%, n = 51 trials
Response (%) (Aedes aegypti [2]; [3]): 26%
Response with Ace (%) (Aedes aegypti [2]): 88%
Δ [(Resp with Ace) − Resp] (%) (Aedes aegypti [2]): 62%
L-lactic acid response (%) (Aedes aegypti [2]; single trials, 200 μL of a 1 μg/1 μL methanolic solution, dried 3 minutes in a petri dish, percentage caught of 75 female mosquitos): 27%

CC(C)=O [acetone]
% caught (Anopheles albimanus; single treatment, 500 μL): 29.6%
% caught (Aedes albopictus; single substance, 500 μL Dish): 9.1%
Acetone Avg response (Aedes aegypti [2]): 51%
Acetone Avg response (Aedes aegypti [2]; listed as Acetone): Acetone Avg: 203/4 = 51%, n = 4 trials
Response with L-LA (%), average in parentheses (Aedes aegypti [2]; compound 500 μL with L-lactic acid, average of the trials): (88%)
Response (%), average in parentheses (Aedes aegypti [2]; compound alone 500 μL, average of the trials): (51%)
Δ [(Resp with LA) − Resp] (%) (Aedes aegypti [2]): 37%
Acetone response (%) (Aedes aegypti [2]; single trials, 500 μL, plated on a small petri dish): 51% and 48% and 53%

C=CC(=C)C [isoprene]
% caught (Anopheles albimanus; single treatment, 500 μL): 0.0%
Response (%) (Aedes aegypti [2]; [3]): 12%
Response with Ace (%) (Aedes aegypti [2]): 56%
Response with L-LA (%) (Aedes aegypti [2]): 23%
Response (%) (Aedes aegypti [2]; [4]): 12%
Δ [(Resp with LA) − Resp] (%) (Aedes aegypti [2]): 11%
Δ [(Resp with Ace) − Resp] (%) (Aedes aegypti [2]): 44%

CCCSSC [methyl propyl disulfide]
% caught (Anopheles albimanus; single treatment, 500 μL): 12.3%
Response with L-LA (%) (Aedes aegypti [2]): 40%
Response (%) (Aedes aegypti [2]; [4]): 19%
Δ [(Resp with LA) − Resp] (%) (Aedes aegypti [2]): 21%

ClCCl [methylene chloride]
% caught (Anopheles albimanus; single treatment, 500 μL): 75.7%
Response with L-LA (%) (Aedes aegypti [2]): 7090%
Response (%) (Aedes aegypti [2]; [4]): 87%
Δ [(Resp with LA) − Resp] (%) (Aedes aegypti [2]): −7%

Cc1ccc(O)cc1 [p-cresol]
% caught (Anopheles albimanus; single treatment, 500 μL): 29.5%
Response with L-LA (%) (Aedes aegypti [2]): 32%
Response (%) (Aedes aegypti [2]; [4]): 5%
Δ [(Resp with LA) − Resp] (%) (Aedes aegypti [2]): 27%
Response Avg % (Aedes aegypti [2]; single compound, dose 500 (μL), 60 mL glass petri dish, Aedes aegypti attraction): 5.0%

N#CCc1ccccc1 [phenylacetonitrile]
% caught (Anopheles albimanus; single treatment, 500 μL): 1.3%
Response with L-LA (%) (Aedes aegypti [2]): 63%
Response (%) (Aedes aegypti [2]; [4]): 16%
Δ [(Resp with LA) − Resp] (%) (Aedes aegypti [2]): 47%
